Reference: patent EP3725799B1, “PEPTIDE BINDING TO PL-L1 AND USE THEREOF” (Kyungpook National University Industry-Academic Cooperation …, priority 2017, dated 2025)
No end group written: not given here.

Key:
[1] = Serum stability of PD-L1 targeting peptides; assay type: in vitro ADME; conditions: incubated with whole serum obtained from mice up to 24h; HPLC peptide peak
Protocol: Mouse blood was collected and allowed to cloth using a microtube for 15-20 min in RT. Serum was then centrifuged at 12000rpm at 4 °C. The upper portion (serum) was collected for testing the peptide stability. The incubated samples were diluted 100-fold and fractionated by C18 reverse phage high performance liquid chromatography (HPLC) with a linear gradient of acetonitrile (0.1% trifluoroacetate in water for equilibration and 0.1% trifluoroacetate in acetonitrile for elution). The peptide peak was collected and vacuum dried.
To measure the KD values of the peptides SPR assays were performed using a streptavidin chip coated with biotin-peptides (FIG. 3a and FIG. 3b). Four different concentrations of PD-L1 binding peptides were for PD-L1Pep-2. […] PD-L1 expression was then knocked down in the MDA-MB231 cell expressing PD-L1. siRNA was tested at different concentration (FIG. 3d). […] To further examine the stability of PD-L1 binding peptides, the peptide was incubated with whole serum obtained from mice up to 24h.

[2] = test system: CT26 syngeneic mouse model; test: Antitumor therapy with PD-L1 binding peptides alone (tumor volume, body weight, survival, immune cell analysis, immunostaining); assay type: in vivo; conditions: peptide intravenously every alternative day for 24 days; compared to the control peptide and PBS group
Protocol: 6-8-week-old WT Balb/c mice were purchased. Mice was cared and maintained under the guidelines of the Institutional Animal Care and Use Committee (IACUC) of Kyungpook National University (2014-0001-8.). Tumor was injected onto the lower right flank of the mice. For the in-vivo homing imaging, the tumor was developed for 7 days, after the tumor size reached to 100mm^3, the mice were injected with 100µl of 100mM Flamma-675 NIR fluorescence dye labelled peptides and allow the complete circulation for an hour. After incubation, the mice were anesthetized, and the image was taken using the IVIS imaging system. […] Tumor size was measured using a digital caliper, and the tumor volume was calculated using the formula (Volume ¼(L-W-H)/2. (Length: longest dimension, Width: shorter dimension, parallel to the mouse body and Height: perpendicular to the length and width). All mice were checked for the ulceration and at the end of the treatment and the mice were sacrificed for the immune cell analysis. […]
Tumors were isolated, minced and incubated with a digestion buffer containing collagenase D (5mg/ml) with the RPMI-1640 medium at 37 °C for 40min. […] The single cell suspension was made ready to use and CD45 antibody was used to stain the tumor infiltrating leukocytes and then analyzed with following antibodies for CD4, CD8 and F4/80. […]

[3] = test system: CT26 mouse syngeneic colon tumor model; test: Combination therapy of PD-L1 binding peptides with doxorubicin (tumor volume, body weight, survival, immune cell analysis by flow cytometry); assay type: in vivo
Protocol: 6-8-week-old WT Balb/c mice were purchased. Mice was cared and maintained under the guidelines of the Institutional Animal Care and Use Committee (IACUC) of Kyungpook National University (2014-0001-8.). Tumor was injected onto the lower right flank of the mice. For the in-vivo homing imaging, the tumor was developed for 7 days, after the tumor size reached to 100mm^3, the mice were injected with 100µl of 100mM Flamma-675 NIR fluorescence dye labelled peptides and allow the complete circulation for an hour. After incubation, the mice were anesthetized, and the image was taken using the IVIS imaging system. After completing the imaging, the mice were sacrificed and the tumor along with the other organs were isolated out and subjected to ex-vivo imaging using the IVIS imaging machine. For the antitumor therapy the mice were randomized and grouped after the tumor size was reached to approximately 100mm^3. The peptide was then injected intravenously (5mg/kg) 100µg/mice for 3 weeks, 3 injections/ week. Doxorubicin was injected intraperitoneal (4mg/kg) once a week. Tumor size was measured using a digital caliper, and the tumor volume was calculated using the formula (Volume ¼(L-W-H)/2. (Length: longest dimension, Width: shorter dimension, parallel to the mouse body and Height: perpendicular to the length and width). All mice were checked for the ulceration and at the end of the treatment and the mice were sacrificed for the immune cell analysis.
Tumors were isolated, minced and incubated with a digestion buffer containing collagenase D (5mg/ml) with the RPMI-1640 medium at 37 °C for 40min. The cell suspension was passed through a cell strainer. The single cell suspension was made ready to use and CD45 antibody was used to stain the tumor infiltrating leukocytes and then analyzed with following antibodies for CD4, CD8 and F4/80. The stained cells were then subjected to flow cytometry (Novocyte).
To enhance the efficacy of immunotherapy with PD-L1-binding peptides, the present inventors combined the peptides with doxorubicin, a chemotherapeutic agent known to induce immunogenic cell death, in CT26 mouse syngeneic colon tumor model. PD-L1 peptides doses were reduced from 12 injections to 9 injections and doxorubicin was given once a week (FIG. 6a). The combination therapy controlled the tumor volume more drastically compared to the previous single treatment (FIG. 6b). In addition, the combination therapy maintained the body weight unchanged compared to the control group, and increased the survival percentage (FIG. 6c and FIG. 6d).

[4] = target: T1, PD-L1 on MDA-MB231 cells (human, UniProt Q9NZQ7 19-290); test: immunofluorescence and flow cytometry, FITC-peptide on MDA-MB231 cells
T1 construct: whole, on cells; also called MDA-MB 231 cells expressing PD-L1

[5] = target: T2, GFP-tagged PD-L1 transiently overexpressed on Hek-293T cells (human, UniProt Q9NZQ7 19-290); test: phage peptide display selection on PD-L1 overexpressing cells
T2 construct: whole, on cells; also called PD-L1-overexpressing cells; not shown: GFP tag

[6] = target: T2, GFP-tagged PD-L1 transiently …; test: immunofluorescence, FITC-peptide on transfected HEK 293T cells
[7] = 'from' value of the printed increase, apparently single peptide treatment
[8] = 'to' value of the printed increase, apparently combination with doxorubicin

T2 sequence (Q9NZQ7 19-290): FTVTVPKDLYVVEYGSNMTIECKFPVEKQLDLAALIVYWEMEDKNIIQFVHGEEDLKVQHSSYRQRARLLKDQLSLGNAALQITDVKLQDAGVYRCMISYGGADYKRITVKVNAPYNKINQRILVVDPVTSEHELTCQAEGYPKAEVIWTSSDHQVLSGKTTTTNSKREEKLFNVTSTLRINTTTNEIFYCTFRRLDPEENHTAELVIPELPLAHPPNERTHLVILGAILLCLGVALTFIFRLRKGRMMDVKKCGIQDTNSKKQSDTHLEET
T1 sequence (Q9NZQ7 19-290): as above

CLQKTPKQC [PD-L1Pep-1]
time the peptide peak remained intact in serum [1]: 8 h
tumor volume [2]: robust effect
CD4+ T cells in tumor tissue [3, 7]: 0.4%
expression percentage of CD8+ T cells in tumor tissue [3, 7]: 1.5%
CD4+ T cells in tumor tissue [3, 8]: 6%
expression percentage of CD8+ T cells in tumor tissue [3, 8]: 6.2%

CVRARTR [PD-L1Pep-2, CVRARTR]
time the peptide peak remained intact in serum [1]: 4 h

B1: PD-L1Pep-1 (peptide)
peptide: CLQKTPKQC
modifications: cysteine pairing not given here; also: N-terminal FITC, biotin or Flamma-675 according to assay
notes: also called PBP
binding result [4]: binds
binding result [5]: binds

B2: PD-L1Pep-2 (peptide)
peptide: CVRARTR
modifications: also: N-terminal FITC, biotin or Flamma-675 according to assay
notes: Synthetic 7mer (CVRARTR); also called PBP
binding result [4]: binds
binding result [6]: binds
